Here are results for 23 compounds from US20260035365A1, “1H-PYRROLO[3,2-B]PYRIDINE DERIVATIVES AS IRREVERSIBLE INHIBITORS OF MUTANT EGFR FOR THE TREATMENT OF CANCER” (Bayer Aktiengesellschaft, priority 2022, published 2026).

Molecules are shown by their SMILES.

Experiment [1] has as its target mutEGFR (D770_N771insNPG, T790). As to the kind of experiment: mutEGFR (D770_N771insNPG, T790) kinase assay. It counts as biochemical, human.
Experiment [2] addresses mutEGFR (D770_N771insSVD) (Homo sapiens, UniProt P00533, INS767SVD). As to the kind of experiment: Exon20-mutant-EGFR (D770_N771insSVD) TR-FRET kinase assay. It counts as biochemical. The conditions noted are these: 2 mM ATP, 15 min preincubation. A digest of the protocol: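 GST-fused human EGFR fragment R669-A1210 carrying the SVD insertion, Sf9-expressed, typically 15 pg/μl, was preincubated with compound for 15 min at 22° C in pH 7.0 Hepes/MgCl2 buffer. Phosphorylation was read by HTRF (665/620 nm ratio), normalised to no-inhibitor and no-enzyme controls.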
Background: Time-resolved FRET reads energy transfer from a long-lived donor to a nearby acceptor.

The next experiment deals with BA/F3 (insSVD) cells. As to the kind of experiment: Ba/F3 cell survival assay (Cell Titer-Glo), EGFR-insSVD. The experiment is classed as cell-based. The conditions noted are these: Mus musculus, BaF3, 48 h, without IL-3, with EGF. A digest of the protocol:
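Viability read by CellTiter-Glo luminescence after 48 h compound exposure at 37° C, 4000 cells/well. Retrovirally transduced, puromycin-selected Ba/F3 lines carrying EGFR-insSVD ± T790M grew IL-3-free with 10 ng/mL EGF for 2 days beforehand; compound delivered by 100 nL pin.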

mutEGFR (D770_N771insSVD), sequence (P00533 with tags, fused parts or gaps INS767SVD limits assumed): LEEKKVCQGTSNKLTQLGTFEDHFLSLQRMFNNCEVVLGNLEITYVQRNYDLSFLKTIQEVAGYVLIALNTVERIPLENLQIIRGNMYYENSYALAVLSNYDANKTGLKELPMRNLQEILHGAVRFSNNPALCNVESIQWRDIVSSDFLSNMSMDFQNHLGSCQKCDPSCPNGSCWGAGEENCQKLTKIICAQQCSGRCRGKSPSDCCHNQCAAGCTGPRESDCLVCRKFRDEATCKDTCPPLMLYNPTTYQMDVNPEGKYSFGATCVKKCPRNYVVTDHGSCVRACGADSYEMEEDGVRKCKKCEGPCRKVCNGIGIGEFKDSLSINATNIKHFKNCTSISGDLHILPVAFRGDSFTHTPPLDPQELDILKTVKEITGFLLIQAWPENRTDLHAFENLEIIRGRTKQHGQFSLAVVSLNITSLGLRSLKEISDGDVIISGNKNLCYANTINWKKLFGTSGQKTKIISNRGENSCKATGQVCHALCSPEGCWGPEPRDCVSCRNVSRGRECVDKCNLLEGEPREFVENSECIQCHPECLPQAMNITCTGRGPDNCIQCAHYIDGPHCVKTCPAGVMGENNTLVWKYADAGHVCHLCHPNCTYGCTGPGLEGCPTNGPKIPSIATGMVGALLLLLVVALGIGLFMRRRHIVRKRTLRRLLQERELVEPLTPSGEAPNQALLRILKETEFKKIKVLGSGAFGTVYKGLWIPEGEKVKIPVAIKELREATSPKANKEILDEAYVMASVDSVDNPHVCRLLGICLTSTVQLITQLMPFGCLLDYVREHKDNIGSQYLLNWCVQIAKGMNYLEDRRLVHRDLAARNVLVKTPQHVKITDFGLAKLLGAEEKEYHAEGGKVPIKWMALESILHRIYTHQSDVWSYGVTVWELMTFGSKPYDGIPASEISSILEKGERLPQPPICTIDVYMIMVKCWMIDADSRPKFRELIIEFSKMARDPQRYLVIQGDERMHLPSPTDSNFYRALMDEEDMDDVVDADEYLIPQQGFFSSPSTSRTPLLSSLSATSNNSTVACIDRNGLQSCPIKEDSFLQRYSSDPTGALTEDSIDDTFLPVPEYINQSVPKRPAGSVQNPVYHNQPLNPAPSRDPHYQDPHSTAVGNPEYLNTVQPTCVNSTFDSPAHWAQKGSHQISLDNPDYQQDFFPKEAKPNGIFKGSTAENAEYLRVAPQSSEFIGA
mutEGFR (D770_N771insNPG, T790), sequence (P00533 with tags, fused parts or gaps INS770NPG limits assumed): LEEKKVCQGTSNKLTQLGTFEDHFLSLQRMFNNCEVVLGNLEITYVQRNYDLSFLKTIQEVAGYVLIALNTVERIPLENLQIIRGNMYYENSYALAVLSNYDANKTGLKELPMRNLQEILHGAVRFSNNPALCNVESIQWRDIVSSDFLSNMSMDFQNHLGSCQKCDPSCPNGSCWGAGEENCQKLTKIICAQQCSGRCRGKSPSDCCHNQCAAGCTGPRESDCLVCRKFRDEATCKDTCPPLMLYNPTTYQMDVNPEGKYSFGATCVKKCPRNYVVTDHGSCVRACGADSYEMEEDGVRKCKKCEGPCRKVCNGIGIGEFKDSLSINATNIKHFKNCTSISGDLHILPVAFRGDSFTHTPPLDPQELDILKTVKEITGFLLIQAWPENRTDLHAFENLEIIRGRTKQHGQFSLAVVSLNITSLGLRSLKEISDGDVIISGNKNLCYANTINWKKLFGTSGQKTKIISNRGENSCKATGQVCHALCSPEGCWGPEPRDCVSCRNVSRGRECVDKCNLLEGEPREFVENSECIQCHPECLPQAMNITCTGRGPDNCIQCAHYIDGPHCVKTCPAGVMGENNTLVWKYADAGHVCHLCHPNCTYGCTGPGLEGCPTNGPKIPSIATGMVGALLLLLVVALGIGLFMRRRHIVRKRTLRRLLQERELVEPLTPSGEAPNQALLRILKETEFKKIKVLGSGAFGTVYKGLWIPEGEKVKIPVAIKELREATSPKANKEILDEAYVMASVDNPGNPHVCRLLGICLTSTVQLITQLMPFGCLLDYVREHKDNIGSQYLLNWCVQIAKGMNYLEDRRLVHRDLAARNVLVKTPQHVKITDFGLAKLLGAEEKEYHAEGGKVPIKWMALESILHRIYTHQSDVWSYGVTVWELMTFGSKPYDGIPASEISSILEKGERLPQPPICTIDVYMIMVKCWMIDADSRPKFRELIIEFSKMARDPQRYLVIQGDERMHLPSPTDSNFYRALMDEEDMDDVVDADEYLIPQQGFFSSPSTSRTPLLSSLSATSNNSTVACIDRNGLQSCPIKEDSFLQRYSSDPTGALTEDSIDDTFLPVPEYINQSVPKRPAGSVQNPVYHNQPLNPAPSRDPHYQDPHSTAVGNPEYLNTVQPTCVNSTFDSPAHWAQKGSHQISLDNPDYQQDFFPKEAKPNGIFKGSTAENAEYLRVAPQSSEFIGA

Broadly, the IC50 is the midpoint of a concentration-inhibition curve. For the compound `C=CS(=O)(=O)N(C)CCOc1cnccc1-c1[nH]c2cccnc2c1-c1cc(CC)ccc1F` [Example 67, N-[2-({4-[3-(5-ethyl-2-fluorophenyl)-1H-pyrrolo[3,2-b]pyridin-2-yl]pyridin-3-yl}oxy)ethyl]-N-methylethenesulfonamide], the IC50 came to 14.6 nM in experiment [1], 3.01 nM in experiment [2] and 418 nM in the experiment on BA/F3 (insSVD) cells.

Consider `C=CS(=O)(=O)N(C)CCOc1cnccc1-c1[nH]c2cccnc2c1-c1cc(F)cc(F)c1` [Example 68, N-[2-({4-[3-(3,5-difluorophenyl)-1H-pyrrolo[3,2-b]pyridin-2-yl]pyridin-3-yl}oxy)ethyl]-N-methylethenesulfonamide], for which the results for the IC50 (in experiment [1]; in experiment [2]; in the experiment with BA/F3 (insSVD) cells) were 8.76 nM, 3.64 nM and 296 nM, respectively.

For `C=CS(=O)(=O)N(C)CCOc1cnccc1-c1[nH]c2cccnc2c1-c1cccc(OC)c1` [Example 69, N-[2-({4-[3-(3-methoxyphenyl)-1H-pyrrolo[3,2-b]pyridin-2-yl]pyridin-3-yl}oxy)ethyl]-N-methylethenesulfonamide], the concentration for half-maximal inhibition (IC50) is 8.7 nM in experiment [1], 3.65 nM in experiment [2] and 287 nM in the experiment with BA/F3 (insSVD) cells.

`C=CS(=O)(=O)N(C)CCOc1cnccc1-c1[nH]c2cccnc2c1-c1cccc(C(C)C)c1` [Example 70, N-methyl-N-{2-[(4-{3-[3-(propan-2-yl)phenyl]-1H-pyrrolo[3,2-b]pyridin-2-yl}pyridin-3-yl)oxy]ethyl}ethenesulfonamide]: the IC50 in experiment [1] is 46.6 nM; in experiment [2], 5.33 nM; in the experiment with BA/F3 (insSVD) cells it was 749 nM.

In the case of `C=CS(=O)(=O)N(C)CCOc1cnccc1-c1[nH]c2cccnc2c1-c1cc(Cl)ccc1Cl` [Example 71, N-[2-({4-[3-(2,5-dichlorophenyl)-1H-pyrrolo[3,2-b]pyridin-2-yl]pyridin-3-yl}oxy)ethyl]-N-methylethenesulfonamide], the values for the half-maximal inhibitory concentration (IC50) (in experiment [1]; in experiment [2]; in the experiment on BA/F3 (insSVD) cells) were 8.59 nM, 5.37 nM and 404 nM, respectively.

On to `C=CS(=O)(=O)N(C)CCOc1cnccc1-c1[nH]c2cccnc2c1-c1ccccc1CC` [Example 72, N-[2-({4-[3-(2-ethylphenyl)-1H-pyrrolo[3,2-b]pyridin-2-yl]pyridin-3-yl}oxy)ethyl]-N-methylethenesulfonamide], for which the values for the 50% inhibitory concentration (IC50) (in experiment [1]; in experiment [2]; in the experiment on BA/F3 (insSVD) cells) were 78.8 nM, 5.82 nM and 463 nM, respectively.

Take `C=CS(=O)(=O)N(C)CCOc1cnccc1-c1[nH]c2cccnc2c1-c1cc(OC)ccc1F` [Example 73, N-[2-({4-[3-(2-fluoro-5-methoxyphenyl)-1H-pyrrolo[3,2-b]pyridin-2-yl]pyridin-3-yl}oxy)ethyl]-N-methylethenesulfonamide]: the IC50 in experiment [1] is 27.9 nM; in experiment [2], 8.7 nM; with BA/F3 (insSVD) cells it was 555 nM.

`C=CS(=O)(=O)N(C)CCOc1cnccc1-c1[nH]c2cccnc2c1-c1cccc(OC(F)(F)F)c1` [Example 74, N-methyl-N-{2-[(4-{3-[3-(trifluoromethoxy)phenyl]-1H-pyrrolo[3,2-b]pyridin-2-yl}pyridin-3-yl)oxy]ethyl}ethenesulfonamide]: the IC50 in experiment [1] was determined as 58.8 nM; in experiment [2] it was 11.2 nM; with BA/F3 (insSVD) cells, 964 nM.

Take `C=CS(=O)(=O)N(C)CCOc1cnccc1-c1[nH]c2cccnc2c1-c1cc(Cl)cc(Cl)c1` [Example 75, N-[2-({4-[3-(3,5-dichlorophenyl)-1H-pyrrolo[3,2-b]pyridin-2-yl]pyridin-3-yl}oxy)ethyl]-N-methylethenesulfonamide]: the half-maximal inhibitory concentration (IC50) was determined as 26.1 nM in experiment [1], 45 nM in experiment [2] and 2020 nM with BA/F3 (insSVD) cells.

With `C=CC(=O)N1CCC[C@H]1COc1cnccc1-c1[nH]c2cccnc2c1-c1cc(C(F)(F)F)ccc1F` [Example 76, 1-[(2S)-2-{[(4-{3-[2-fluoro-5-(trifluoromethyl)phenyl]-1H-pyrrolo[3,2-b]pyridin-2-yl}pyridin-3-yl)oxy]methyl}pyrrolidin-1-yl]prop-2-en-1-one], the half-inhibitory concentration (IC50) in experiment [1] was 9.46 nM; in experiment [2], 2.78 nM; with BA/F3 (insSVD) cells, 97.9 nM.

On to `C=CC(=O)N1CCC[C@H]1COc1cnccc1-c1[nH]c2cccnc2c1-c1cc(C)ccc1F` [Example 77, 1-{(2S)-2-[({4-[3-(2-fluoro-5-methylphenyl)-1H-pyrrolo[3,2-b]pyridin-2-yl]pyridin-3-yl}oxy)methyl]pyrrolidin-1-yl}prop-2-en-1-one], for which the figures for the IC50 (in experiment [1]; in experiment [2]; in the experiment on BA/F3 (insSVD) cells) were 1.97 nM, 0.853 nM and 27.4 nM, respectively.

As for `C=CC(=O)N1CCC[C@H]1COc1cnccc1-c1[nH]c2cccnc2c1-c1cccc(CC)c1` [Example 78, 1-{(2S)-2-[({4-[3-(3-ethylphenyl)-1H-pyrrolo[3,2-b]pyridin-2-yl]pyridin-3-yl}oxy)methyl]pyrrolidin-1-yl}prop-2-en-1-one], the concentration for half-maximal inhibition (IC50) in experiment [1] is 2.92 nM; in experiment [2] it was 1.04 nM; with BA/F3 (insSVD) cells, 80.2 nM.

Turning to `C=CC(=O)N1CCC[C@H]1COc1cnccc1-c1[nH]c2cccnc2c1-c1ccc2cccnc2c1` [Example 79, 1-{(2S)-2-[({4-[3-(quinolin-7-yl)-1H-pyrrolo[3,2-b]pyridin-2-yl]pyridin-3-yl}oxy)methyl]pyrrolidin-1-yl}prop-2-en-1-one], the figures for the IC50 (in experiment [1]; in experiment [2]; in the experiment with BA/F3 (insSVD) cells) were 9.38 nM, 4.41 nM and 367 nM, respectively.

Regarding `C=CC(=O)N1CCC[C@H]1COc1cnccc1-c1[nH]c2cccnc2c1-c1ccc2ccccc2c1` [Example 80, 1-{(2S)-2-[({4-[3-(naphthalen-2-yl)-1H-pyrrolo[3,2-b]pyridin-2-yl]pyridin-3-yl}oxy)methyl]pyrrolidin-1-yl}prop-2-en-1-one], the concentration for half-maximal inhibition (IC50) in experiment [1] was 1.86 nM; in experiment [2], 0.583 nM; in the experiment with BA/F3 (insSVD) cells, 162 nM.

On to `C=CC(=O)N1CCC[C@H]1COc1cnccc1-c1[nH]c2cccnc2c1-c1ccc2ccsc2c1` [Example 81, 1-{(2S)-2-[({4-[3-(1-benzothiophen-6-yl)-1H-pyrrolo[3,2-b]pyridin-2-yl]pyridin-3-yl}oxy)methyl]pyrrolidin-1-yl}prop-2-en-1-one], for which the IC50 in experiment [1] turned out to be 1.29 nM; in experiment [2] it was 0.391 nM; in the experiment with BA/F3 (insSVD) cells, 57.4 nM.

As to `C=CC(=O)N1CCC[C@H]1COc1cnccc1-c1[nH]c2cccnc2c1-c1ccc2ccoc2c1` [Example 82, 1-{(2S)-2-[({4-[3-(1-benzofuran-6-yl)-1H-pyrrolo[3,2-b]pyridin-2-yl]pyridin-3-yl}oxy)methyl]pyrrolidin-1-yl}prop-2-en-1-one], the IC50 in experiment [1] was found to be 0.837 nM; in experiment [2] it was 0.267 nM; in the experiment on BA/F3 (insSVD) cells it was 36.8 nM.

Regarding `C=CC(=O)N1CCC[C@H]1COc1cnccc1-c1[nH]c2cccnc2c1-c1cccc(OC)c1` [Example 83, 1-{(2S)-2-[({4-[3-(3-methoxyphenyl)-1H-pyrrolo[3,2-b]pyridin-2-yl]pyridin-3-yl}oxy)methyl]pyrrolidin-1-yl}prop-2-en-1-one], the IC50 is 7.63 nM in experiment [1], 2.09 nM in experiment [2] and 132 nM in the experiment on BA/F3 (insSVD) cells.

Regarding `C=CC(=O)N1CCC[C@H]1COc1cnccc1-c1[nH]c2cccnc2c1-c1ccc2cc[nH]c2c1` [Example 84, 1-{(2S)-2-[({4-[3-(1H-indol-6-yl)-1H-pyrrolo[3,2-b]pyridin-2-yl]pyridin-3-yl}oxy)methyl]pyrrolidin-1-yl}prop-2-en-1-one], the IC50 in experiment [1] worked out at 154 nM; in experiment [2], 32.5 nM; with BA/F3 (insSVD) cells, 3560 nM.

For the compound `C=CC(=O)N1CCC[C@H]1COc1cnccc1-c1[nH]c2cccnc2c1-c1cccc(Cl)c1Cl` [Example 85, 1-{(2S)-2-[({4-[3-(2,3-dichlorophenyl)-1H-pyrrolo[3,2-b]pyridin-2-yl]pyridin-3-yl}oxy)methyl]pyrrolidin-1-yl}prop-2-en-1-one], the IC50 in experiment [1] came to 3.64 nM; in experiment [2], 0.5 nM; with BA/F3 (insSVD) cells it was 55.7 nM.

As for `C=CC(=O)N1CCC[C@H]1COc1cnccc1-c1[nH]c2cccnc2c1-c1cccc(F)c1F` [Example 86, 1-{(2S)-2-[({4-[3-(2,3-difluorophenyl)-1H-pyrrolo[3,2-b]pyridin-2-yl]pyridin-3-yl}oxy)methyl]pyrrolidin-1-yl}prop-2-en-1-one], the figures for the half-inhibitory concentration (IC50) (in experiment [1]; in experiment [2]; in the experiment on BA/F3 (insSVD) cells) were 3.99 nM, 0.911 nM and 67 nM, respectively.

With `C=CC(=O)N1CCC[C@H]1COc1cnccc1-c1[nH]c2cccnc2c1-c1cccc(C#N)c1` [Example 87, 3-[2-(3-{[(2S)-1-(prop-2-enoyl)pyrrolidin-2-yl]methoxy}pyridin-4-yl)-1H-pyrrolo[3,2-b]pyridin-3-yl]benzonitrile], the results for the 50% inhibitory concentration (IC50) (in experiment [1]; in experiment [2]; in the experiment on BA/F3 (insSVD) cells) were 33.8 nM, 15.2 nM and 759 nM, respectively.

`C=CC(=O)N1CCC[C@H]1COc1cnccc1-c1[nH]c2cccnc2c1-c1ccccc1Cl` [Example 88, 1-{(2S)-2-[({4-[3-(2-chlorophenyl)-1H-pyrrolo[3,2-b]pyridin-2-yl]pyridin-3-yl}oxy)methyl]pyrrolidin-1-yl}prop-2-en-1-one]: the 50% inhibitory concentration (IC50) in experiment [1] was 10.7 nM; in experiment [2], 1.89 nM; in the experiment with BA/F3 (insSVD) cells it was 166 nM.

For `C=CC(=O)N1CCC[C@H]1COc1cnccc1-c1[nH]c2cccnc2c1-c1ccccc1F` [Example 89, 1-{(2S)-2-[({4-[3-(2-fluorophenyl)-1H-pyrrolo[3,2-b]pyridin-2-yl]pyridin-3-yl}oxy)methyl]pyrrolidin-1-yl}prop-2-en-1-one], the figures for the IC50 (in experiment [1]; in experiment [2]; in the experiment on BA/F3 (insSVD) cells) were 2.31 nM, 0.547 nM and 24.2 nM, respectively.
